Results on 18 compounds are retold here after patent US9784740B2 (priority 2013, dated 2017).

In assay [1] the target is T1, mu-opioid receptor (OPRM1) (Homo sapiens, UniProt P35372). Put plainly: β-arrestin recruitment assay (PathHunter) in U2OS-OPRM1 cells. The settings on record: for Description (PAM efficacy class / SAM): U2OS-OPRM1, β-arrestin PAM and SAM detection modes; for β-arrestin recruitment, agonist detection mode (compound alone): U2OS-OPRM1 cells, no orthosteric agonist. Background: Activated receptors often draw arrestin, which recruitment assays turn into a signal.
T1 sequence (P35372 whole entry): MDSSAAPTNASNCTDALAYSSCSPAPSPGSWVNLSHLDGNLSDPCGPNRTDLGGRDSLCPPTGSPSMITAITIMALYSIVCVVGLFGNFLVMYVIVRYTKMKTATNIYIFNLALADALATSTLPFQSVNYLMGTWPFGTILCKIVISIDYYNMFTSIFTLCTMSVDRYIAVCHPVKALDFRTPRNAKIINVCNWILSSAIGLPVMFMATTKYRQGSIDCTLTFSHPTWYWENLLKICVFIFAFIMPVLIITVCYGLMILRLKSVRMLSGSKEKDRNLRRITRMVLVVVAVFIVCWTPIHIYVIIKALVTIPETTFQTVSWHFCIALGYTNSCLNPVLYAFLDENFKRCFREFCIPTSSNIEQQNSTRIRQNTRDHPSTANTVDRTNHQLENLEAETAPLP

For assay [2], the target named is T1, mu-opioid receptor (OPRM1).
In assay [3] the target is T2, delta opioid receptor (OPRD1) (Homo sapiens, UniProt P41143).
T2 construct: host or cells: U2OS (PathHunter U2OS-OPRD1)
T2 sequence (P41143 whole entry): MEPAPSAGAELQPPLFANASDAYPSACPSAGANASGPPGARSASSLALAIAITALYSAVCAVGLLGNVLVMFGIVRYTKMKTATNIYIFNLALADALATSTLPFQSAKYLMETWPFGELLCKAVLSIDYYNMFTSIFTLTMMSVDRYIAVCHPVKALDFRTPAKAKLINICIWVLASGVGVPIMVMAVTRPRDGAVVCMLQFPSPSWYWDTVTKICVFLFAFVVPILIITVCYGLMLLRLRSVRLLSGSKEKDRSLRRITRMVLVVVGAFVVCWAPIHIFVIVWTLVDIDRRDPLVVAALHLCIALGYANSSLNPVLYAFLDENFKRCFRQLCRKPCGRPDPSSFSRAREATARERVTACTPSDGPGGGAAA
Put plainly: β-arrestin recruitment assay (PathHunter) in U2OS-OPRD1 cells. Type of assay: cell-based. The settings on record: for β-arrestin recruitment, agonist detection mode: U2OS-OPRD1, no leu-enkephalin; for β-arrestin recruitment, PAM detection mode: U2OS-OPRD1, ~EC10 (0.4 nM) leu-enkephalin.

The target of assay [4] is T3, mu-opioid receptor (C6mu membranes) (Rattus norvegicus, UniProt P33535).
T3 construct: expressed in transfected cells; host or cells: C6 glioma cells (membranes)
T3 sequence (P33535 whole entry): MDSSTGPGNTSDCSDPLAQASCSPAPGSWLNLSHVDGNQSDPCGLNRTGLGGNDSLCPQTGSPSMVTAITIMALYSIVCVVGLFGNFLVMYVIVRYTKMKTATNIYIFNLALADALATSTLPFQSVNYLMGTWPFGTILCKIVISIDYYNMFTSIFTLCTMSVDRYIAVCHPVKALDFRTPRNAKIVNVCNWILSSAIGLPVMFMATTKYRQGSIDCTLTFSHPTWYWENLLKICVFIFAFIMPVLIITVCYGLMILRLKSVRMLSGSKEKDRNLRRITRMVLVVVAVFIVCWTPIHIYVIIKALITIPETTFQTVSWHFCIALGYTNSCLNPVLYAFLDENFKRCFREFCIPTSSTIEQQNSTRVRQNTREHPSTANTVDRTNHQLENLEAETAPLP
Put plainly: [35S]GTPγS binding in C6mu cell membranes. Type of assay: biochemical. The following applies: for agonist activity of modulator in [35S]GTPγS binding: modulator alone. For orientation: GTPγS is a poorly hydrolysed GTP analogue; its binding reports G protein activation.

Assay [5] addresses T1, mu-opioid receptor (OPRM1). Put plainly: cell-based.
The target in assay [6] is T4, human mu opioid receptors (Homo sapiens, UniProt P35372).
T4 sequence (P35372 whole entry): as the sequence (P35372 whole entry) above
Assay [7] has as its target T4, human mu opioid receptors. Description: Inhibition of forskolin-stimulated cAMP accumulation in CHO-mu cells. The following applies: for EC50: mean (95% CI). (In general: Changes in cAMP serve as a functional read-out for many G protein-coupled receptors.)
The target of assay [8] is T3, mu-opioid receptor (C6mu membranes). Description: DAMGO competition binding with [3H]diprenorphine in C6mu membranes. The settings on record: 10 uM modulator.
The target of assay [9] is T4, human mu opioid receptors. Description: cell-based.
Assay [10] addresses T5, mu-opioid receptor (mouse brain membranes) (Mus musculus, UniProt P42866).
T5 construct: membranes from a physiologically relevant tissue with endogenous levels of receptor and G-protein; from tissue; host or cells: mouse whole brain minus cerebellum, membrane homogenate
Put plainly: [35S]GTPγS binding in mouse brain membranes. It counts as biochemical.

Assay [11] concerns the target T3, mu-opioid receptor (C6mu membranes). It counts as binding.
Setting [12] is: C6mu membranes, 10 uM modulator.

“And” between values parts separate entries of the source, which are not always exact repeats. Equal values may be shown once. “Also recorded” adds a separate entry of the source. Read-outs that look alike come from different tables or passages of the source.

T5 sequence (P42866 whole entry): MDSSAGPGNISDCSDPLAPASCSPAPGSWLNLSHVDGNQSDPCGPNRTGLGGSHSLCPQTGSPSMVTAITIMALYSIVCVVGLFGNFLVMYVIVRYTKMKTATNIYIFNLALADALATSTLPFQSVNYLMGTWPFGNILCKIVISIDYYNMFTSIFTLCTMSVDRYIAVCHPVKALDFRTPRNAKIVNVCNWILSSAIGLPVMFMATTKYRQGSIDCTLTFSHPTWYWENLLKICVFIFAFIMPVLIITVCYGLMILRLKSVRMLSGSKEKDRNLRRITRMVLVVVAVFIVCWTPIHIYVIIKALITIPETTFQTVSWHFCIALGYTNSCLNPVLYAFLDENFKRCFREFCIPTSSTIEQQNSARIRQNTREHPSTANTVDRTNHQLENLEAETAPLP

One may read the EC50 as the concentration giving half of the maximal effect. Turning to `COc1ccc(C2SCCN2S(=O)(=O)c2ccc(Br)cc2)cc1OC` (racemic) [Analog 8], the “Description (PAM efficacy class / SAM)” value in assay [1] is given as “Weak PAM”. For the same compound, the EC50 in [2] worked out at 14 µM.

Take `COc1cc(Br)ccc1C1SCCN1S(=O)(=O)c1ccc(Cl)cc1` (racemic) [BMS-986124]: in assay [3], the “β-arrestin recruitment, agonist detection mode” value is given as “no activity” and the “β-arrestin recruitment, PAM detection mode” value was “no activity”. Besides, the “antagonist/NAM detection mode: effect on EC80 endomorphin-I response” value in assay [1] (U2OS-OPRM1, 300 nM endomorphin-I) is reported as “no significant effect; also recorded: Neither compound significantly inhibited; also recorded: no NAM/antagonist activity”. Also, in [1] (U2OS-OPRM1, 12.5 uM (~EC80) BMS-986122 plus 30 nM (~EC20) endomorphin-I), the “SAM detection mode: inhibition of BMS-986122 PAM response” value is reported as “able to inhibit the PAM response; also recorded: inhibited PAM responses”. Moreover, in assay [1], the “Description (PAM efficacy class / SAM)” value was “SAM” and the “β-arrestin recruitment, agonist detection mode (compound alone)” value (“β-arrestin recruitment … (compound alone)” below) is reported as “no activity”. For the same compound, in assay [1] (read-out: β-arrestin SAM Detection Mode (Kb), U2OS-OPRM1, inhibition of BMS-986122 (~EC80) response with ~EC20 endomorphin-I, Kb calculated from IC50), the Kb was 2 µM. Further, in assay [4] (setting [12]), the “effect on DAMGO potency in [35S]GTPγS assay” value is on record as “not significantly increased”, the “effect on morphine Emax in [35S]GTPγS assay” value is “increased morphine Emax to a small degree” and the “effect on morphine potency in [35S]GTPγS assay” value is reported as “not significantly increased”. The “effect on DAMGO-stimulated [35S]GTPγS binding potency” value in assay [4] (C6mu membranes, 50 uM BMS-986124 alone) is given as “not affected”. Besides, the “agonist activity of modulator in [35S]GTPγS binding” value in [4] (C6mu membranes) is “No significant agonist activity was detected”.

Regarding `COc1ccc(C2SCCN2S(=O)(=O)c2ccc([N+](=O)[O-])cc2)cc1Br` (stereo not drawn) [Analog 1], the “Description (PAM efficacy class / SAM)” value in assay [1] was “Moderate PAM”. Further, the EC50 in assay [5] amounted to 2 µM.

Turning to `COc1ccc(C2SCCN2S(=O)(=O)c2ccc(C)cc2)cc1Br` (stereo not drawn) [Analog 2], the “Description (PAM efficacy class / SAM)” value in assay [1] was “Weak PAM”. Also, a half-maximal effect in [5] (EC50) was put at 4 µM.

Take `COc1ccc(S(=O)(=O)N2CCSC2c2ccc(OC)c(Br)c2)cc1` (stereo not drawn) [Analog 3]: the “Description (PAM efficacy class / SAM)” value in assay [1] was “Weak PAM”. For the same compound, the 50% effective concentration (EC50) in assay [5] is 6 µM.

With `COc1ccc(C2SCCN2S(=O)(=O)c2cccc(C)c2)cc1Br` (stereo not drawn) [Analog 4], in assay [1], the “Description (PAM efficacy class / SAM)” value is “Weak PAM”. Also, the EC50 in [5] is 9 µM.

With `COc1ccc(C2SCCN2S(=O)(=O)c2ccc(Cl)cc2)cc1[N+](=O)[O-]` (stereo not drawn) [Analog 5], the “Description (PAM efficacy class / SAM)” value in [1] is “Moderate PAM”. The same compound came in with a concentration for a half-maximal effect (EC50) in assay [5] of 4 µM.

With `COc1ccc(C2SCCN2S(=O)(=O)c2ccc(Br)cc2)cc1[N+](=O)[O-]` (stereo not drawn) [Analog 6], in [1], the “Description (PAM efficacy class / SAM)” value is listed as “Moderate PAM”. The EC50 in assay [5] is 2 µM.

For the compound `COc1ccc(C2SCCN2S(=O)(=O)c2ccc(Br)cc2)cc1` (stereo not drawn) [Analog 9], the “Description (PAM efficacy class / SAM)” value in assay [1] was “Moderate PAM”. Further, the EC50 in assay [5] was found to be 7 µM.

In the case of `COc1ccc(C2SCCN2S(=O)(=O)c2ccccc2)cc1` (stereo not drawn) [Analog 10], the “Description (PAM efficacy class / SAM)” value in assay [1] was “Weak PAM”. In assay [5], this compound registered a concentration giving a half-maximal response (EC50) of 23 µM.

With `O=S(=O)(c1ccc(Cl)cc1)N1CCSC1c1cccc(Cl)c1` (stereo not drawn) [Analog 11], the “Description (PAM efficacy class / SAM)” value in assay [1] is “Strong PAM”. The compound further yielded an EC50 in assay [5] of 5 µM.

As to `O=S(=O)(c1ccc(Cl)cc1)N1CCSC1c1ccc(Br)cc1` (stereo not drawn) [Analog 12], the “Description (PAM efficacy class / SAM)” value in assay [1] is “Weak PAM”. The same compound displayed an EC50 in assay [5] of 6 µM.

With `COc1ccc(S(=O)(=O)N2CCSC2c2ccc(Br)cc2)cc1` (stereo not drawn) [Analog 14], the “Description (PAM efficacy class / SAM)” value in [1] is on record as “Weak PAM”. Also, the EC50 in [5] amounted to 7 µM.

For the compound `COc1ccc(C2SCCN2S(=O)(=O)c2ccc(OC)cc2)cc1` (stereo not drawn) [Analog 15], in assay [1], the “Description (PAM efficacy class / SAM)” value is “Weak PAM”. Besides, the EC50 in assay [5] was 37 µM.

Regarding `O=[N+]([O-])c1ccc(-c2csc(=Nc3c(Cl)cccc3Cl)[nH]2)cc1` [BMS-986121], in assay [3], the “β-arrestin recruitment, agonist detection mode” value is “Neither compound had any significant effect” and the “β-arrestin recruitment, PAM detection mode” value is recorded as “Neither compound had any significant effect”. Besides, in assay [1], the “β-arrestin recruitment … (compound alone)” value is “Neither BMS-986121 nor BMS-986122 produced significant β-arrestin recruitment on their own”. A half-maximal response in assay [6] (EC50) required 2.2 µM. In assay [4] (setting [12]), the “effect of modulator on maximal stimulation by DAMGO” value is listed as “not affected”, the “increase in morphine potency” value is listed as 2.5 fold and the “leftward shift in DAMGO CRC (potency)” value stood at 4 fold. The “agonist activity of modulator in [35S]GTPγS binding” value in assay [4] (C6mu membranes) is listed as “No significant agonist activity was detected”. Besides, in assay [7] (CHO-mu, 100 uM modulator), the “leftward shift in potency of endomorphin-I” value is 4 fold and 4.3 fold; the “leftward shift in potency of leu-enkephalin” value is 4.5 fold; the “leftward shift in potency of morphine” value worked out at 6.5 fold. Further, in [7] (CHO-mu, no orthosteric agonist, 100% = 10 nM endomorphin-I), the “Emax of agonist activity (agonist detection mode)” value is on record as 35 (6-63) %. Further, in [7] (read-out: EC50 of agonist activity (agonist detection mode), CHO-mu, no orthosteric agonist), the EC50 turned out to be 14 µM. For the same compound, in assay [2], the EC50 was 1 µM and 1.7 µM; the Emax turned out to be 72%.

Consider `COc1ccc(C2SCCN2S(=O)(=O)c2ccc(Cl)cc2)cc1Br` (stereo not drawn) [BMS-986122], for which the “increase in the affinity of DAMGO” value in [8] stood at 6 fold. Besides, in [3], the “β-arrestin recruitment, agonist detection mode” value is “Neither compound had any significant effect” and the “β-arrestin recruitment, PAM detection mode” value was “Neither compound had any significant effect”. Further, in [1], the “Description (PAM efficacy class / SAM)” value is recorded as “Full PAM (ref)” and the “β-arrestin recruitment … (compound alone)” value is reported as “Neither BMS-986121 nor BMS-986122 produced significant β-arrestin recruitment on their own”. The compound also came in with an EC50 in assay [9] of 8.9 µM. For the same compound, the “agonist activity of modulator” value in [10] is given as “No agonist activity was observed”. Moreover, the “leftward shift in DAMGO potency” value in [10] (10 uM modulator) is recorded as 4.5 fold. Further, in assay [10] (10 uM modulator, basal 4.8±0.4 fmol bound/mg protein), the “effect on basal [35S]GTPγS binding” value is “not affected”. In addition, in assay [4] (setting [12]), the “effect of modulator on maximal stimulation by DAMGO” value is “not affected”; the “increase in morphine potency” value was determined as 3 fold; the “leftward shift in DAMGO CRC (potency)” value is 8 fold and 7 fold. For the same compound, in assay [4] (C6mu membranes), the “agonist activity of modulator in [35S]GTPγS binding” value is on record as “No significant agonist activity was detected”. Besides, in assay [7] (EC50 of agonist activity (agonist detection mode), CHO-mu, no orthosteric agonist), the midpoint of the response, the EC50, lay at 41 µM. Also, the Emax in assay [7] (read-out: Emax of agonist activity (agonist detection mode)) was 60%. This compound displayed an Emax in assay [2] of 79%. Besides, the half-maximal effective concentration (EC50) in assay [5] is 3 µM and 4.9 µM. Besides, the “effect on [3H]diprenorphine binding affinity” value in assay [11] is listed as “no significant effect; also recorded: did not affect; also recorded: had no effect”.

`C[C@@H](NC(=O)[C@@H](N)Cc1ccc(O)cc1)C(=O)NCC(=O)N(C)[C@@H](Cc1ccccc1)C(=O)NCCO` [DAMGO, reference compound]: the “stimulation of [35S]GTPγS binding above basal activity” value in assay [4] (C6mu membranes, 10 uM DAMGO, 5 min) is recorded as 250%. Further, in assay [4] (read-out: maximal stimulation by DAMGO, control), the Emax came out at 232%.

On to endomorphin-I [reference compound], for which, in assay [7] (CHO-mu, 1 uM forskolin), the “reduction in forskolin-stimulated cAMP accumulation” value is on record as 17 fold. The “potency in cAMP assay (CHO) relative to arrestin recruitment (U2OS PathHunter)” value in [7] (cAMP inhibition vs β-arrestin recruitment) is given as approximately 1000 fold.
